Results from patent USRE41614E1, “Synthetic analogs of ecteinascidin-743” (President and Fellows of Harvard College, priority 1998, dated 2010).
Values after ≈ are worked out from the molar mass of the structure shown. Like-named read-outs stand apart in the source and are kept apart here.

Experiments:
Format in all cases: cell-based
[1] = system: A375 (Melanoma) human cancer cell line; experiment: In vitro anti-tumor screen, cancer cell antiproliferative assay, A375; details: for IC50: Homo sapiens
Description: (§1) The following tables summarize the activity of all the synthetic derivatives. […] Lower values represent higher activity.
(§2) ^9 Cancer cell antiproliferative assays were performed by Dr. Takashi Owa, a postdoctoral fellow in the Stuart L. Schreiber research group.

[2] = system: HCT116 (Colon) human cancer cell line; experiment: In vitro anti-tumor screen, cancer cell antiproliferative assay, HCT116
Description: as §1, §2

[3] = system: A-549 (Lung) human cancer cell line; experiment: In vitro anti-tumor screen, cancer cell antiproliferative assay, A-549
Description: as §1, §2

[4] = system: PC-3 (Prostate) human cancer cell line; experiment: In vitro anti-tumor screen, cancer cell antiproliferative assay, PC-3; details: for IC50: Homo sapiens
Description: as §1, §2

[5] = A-375, Table 8, additional biological data, third value of cell, read-out: IC50 (ng/mL) Melan.
[6] = HCT-116, Table 8, additional biological data, second value of cell, read-out: IC50 (ng/mL) Colon
[7] = A549, Table 8, additional biological data, first value of cell, read-out: IC50 (ng/mL) Lung
[8] = Table 8, additional biological data, fourth value of cell, read-out: IC50 (ng/mL) Prost.
[9] = A-375, Table 5, B-ring substitution at X1, melanoma, >100 ng/mL considered inactive, read-out: IC50 A375
[10] = HCT-116, Table 5, B-ring substitution at X1, colon, >100 ng/mL considered inactive, read-out: IC50 HCT-116
[11] = Table 5, B-ring substitution at X1, lung, >100 ng/mL considered inactive, read-out: IC50 A-549
[12] = Table 5, B-ring substitution at X1, prostate, >100 ng/mL considered inactive, read-out: IC50 PC-3
[13] = HCT-116, Table 6, A-ring substitution at X2, colon, read-out: IC50 HCT 116
[14] = A549, Table 6, A-ring substitution at X2, lung, read-out: IC50 A-549
[15] = A-375, Table 6, A-ring substitution at X2, melanoma, read-out: IC50 A375
[16] = Table 6, A-ring substitution at X2, prostate, read-out: IC50 PC-3

| SMILES | IC50 [1, 5] [ng/mL] | IC50 [2, 6] [ng/mL] | IC50 [3, 7] [ng/mL] | IC50 [4, 8] [ng/mL] | IC50 [1, 9] [ng/mL] | IC50 [2, 10] [ng/mL] | IC50 [3, 11] [ng/mL] | IC50 [4, 12] [ng/mL] | also measured |
| --- | --- | --- | --- | --- | --- | --- | --- | --- | --- |
| COCOc1c(OC)c(C)cc2c1[C@@H]1[C@@H]3Cc4c(OC(C)=O)c(C)c5c(c4[C@H](CN4C(=O)c6ccccc6C4=O)N3[C@@H](C#N)[C@H](C2)N1C)OCO5 | 46 (≈ 66.2 nM) | 51 (≈ 73.4 nM) | 160 (≈ 230 nM) | 68 (≈ 97.9 nM) |  |  |  |  |  |
| COc1c(C)cc2c(c1O)[C@@H]1[C@@H]3CC4=C(C(=O)C(O)=C(C)C4=O)[C@H](CN4C(=O)c5ccccc5C4=O)N3[C@@H](C#N)[C@H](C2)N1C | 2.1 (≈ 3.53 nM) | 13 (≈ 21.9 nM) | 48 (≈ 80.7 nM) | 9 (≈ 15.1 nM) |  |  |  |  |  |
| COc1c(C)cc2c(c1O)[C@@H]1[C@@H]3Cc4c(OC(C)=O)c(C)c5c(c4[C@H](CN4C(=O)c6ccccc6C4O)N3[C@@H](C#N)[C@H](C2)N1C)OCO5 (some centres unmarked) [Compound 28] |  |  |  |  | 0.79 (≈ 1.21 nM) | 2.4 (≈ 3.68 nM) | 22 (≈ 33.7 nM) | 2.7 (≈ 4.14 nM) |  |
| COc1c(C)cc2c(c1O)[C@@H]1[C@@H]3Cc4c(OC(C)=O)c(C)c5c(c4[C@H](CN4C(=O)c6ccccc6C4=O)N3[C@@H](C#N)[C@H](C2)N1C)OCO5 [Compound 7] |  |  |  |  | 0.11 (≈ 0.169 nM) | 0.25 (≈ 0.384 nM) | 0.62 (≈ 0.953 nM) | 0.36 (≈ 0.553 nM) | IC50 A375 ([1]; Table 6, A-ring substitution at X2, melanoma): 0.11 ng/mL (≈ 0.169 nM); IC50 [2, 13]: 0.25 ng/mL (≈ 0.384 nM); IC50 [3, 14]: 0.62 ng/mL (≈ 0.953 nM); IC50 PC-3 ([4]; Table 6, A-ring substitution at X2, prostate): 0.36 ng/mL (≈ 0.553 nM) |
| COc1c(C)cc2c(c1O)[C@@H]1[C@@H]3Cc4c(O)c(C)c5c(c4[C@H](CN4C(=O)c6ccccc6C4=O)N3[C@@H](C#N)[C@H](C2)N1C)OCO5 [Compound 48] |  |  |  |  |  |  |  |  | IC50 [1, 15]: 2.5 ng/mL (≈ 4.11 nM); IC50 [2, 13]: 6 ng/mL (≈ 9.86 nM); IC50 [3, 14]: 30 ng/mL (≈ 49.3 nM); IC50 [4, 16]: 7.7 ng/mL (≈ 12.7 nM) |
| COc1c(C)cc2c(c1O)[C@@H]1[C@@H]3Cc4c(OC(C)=O)c(C)c5c(c4[C@H](CN4C(=O)c6ccccc6C4=O)N3[C@@H](C#N)[C@H](C2)N1C)OCO5 | 0.13 (≈ 0.2 nM) | 0.39 (≈ 0.599 nM) | 0.67 (≈ 1.03 nM) | 0.34 (≈ 0.523 nM) |  |  |  |  |  |
| COc1c(C)c(Br)c2c(c1O)[C@@H]1[C@@H]3Cc4c(OC(C)=O)c(C)c5c(c4[C@H](CN4C(=O)c6ccccc6C4=O)N3[C@@H](C#N)[C@H](C2)N1C)OCO5 | 0.47 (≈ 0.644 nM) | 1.3 (≈ 1.78 nM) | 4.7 (≈ 6.44 nM) | 2 (≈ 2.74 nM) |  |  |  |  |  |
| COc1c(C)cc2c(c1O)[C@@H]1[C@@H]3Cc4c(OC(C)=O)c(C)c5c(c4[C@H](CN4C(=O)c6ccc(N)cc6C4=O)N3[C@@H](C#N)[C@H](C2)N1C)OCO5 [Compound 20] |  |  |  |  | 0.79 (≈ 1.19 nM) | 2.1 (≈ 3.15 nM) | 14 (≈ 21 nM) | 2 (≈ 3 nM) |  |
| COc1c(C)cc2c(c1O)[C@@H]1[C@@H]3Cc4c(OC(C)=O)c(C)c5c(c4[C@H](CN4C(=O)c6ccncc6C4=O)N3[C@@H](C#N)[C@H](C2)N1C)OCO5 [Compound 32] |  |  |  |  | 0.36 (≈ 0.552 nM) | 2.1 (≈ 3.22 nM) | 11 (≈ 16.9 nM) | 37 (≈ 56.8 nM) |  |
| COc1c(C)cc2c(c1OC(C)=O)[C@@H]1[C@@H]3Cc4c(OC(C)=O)c(C)c5c(c4[C@H](CN4C(=O)c6ccccc6C4=O)N3[C@@H](C#N)[C@H](C2)N1C)OCO5 | 8.3 (≈ 12 nM) | 20 (≈ 28.9 nM) | 40 (≈ 57.7 nM) | 17 (≈ 24.5 nM) |  |  |  |  |  |
| COc1c(C)cc2c(c1O)[C@@H]1[C@@H]3Cc4c(OC(C)=O)c(C)c5c(c4[C@H](COC(=O)Nc4ccccc4)N3[C@@H](C#N)[C@H](C2)N1C)OCO5 [Compound 22] |  |  |  |  | 1.9 (≈ 2.97 nM) | 2.3 (≈ 3.59 nM) | 4.5 (≈ 7.02 nM) | 2.6 (≈ 4.06 nM) |  |
| CNC(=O)Oc1c(C)c2c(c3c1C[C@H]1[C@H]4c5c(cc(C)c(OC)c5O)C[C@@H]([C@H](C#N)N1[C@H]3CN1C(=O)c3ccccc3C1=O)N4C)OCO2 [Compound 66] |  |  |  |  |  |  |  |  | IC50 ([1]; A-375, Table 7, additional analogs, read-out: IC50 Melanoma): 0.92 ng/mL (≈ 1.38 nM); IC50 ([2]; HCT-116, Table 7, additional analogs, read-out: IC50 Colon): 1.3 ng/mL (≈ 1.95 nM); IC50 ([3]; A549, Table 7, additional analogs, read-out: IC50 Lung): 8.6 ng/mL (≈ 12.9 nM); IC50 ([4]; Table 7, additional analogs, read-out: IC50 Prostate): 2.1 ng/mL (≈ 3.15 nM) |
| COc1c(C)cc2c(c1O)[C@@H]1[C@@H]3Cc4c(O)c(C)c5c(c4[C@H](CNC(=O)Cc4ccc(OC(C)=O)cc4)N3[C@@H](C#N)[C@H](C2)N1C)OCO5 | > 100 | > 100 | > 100 | > 100 |  |  |  |  |  |
| COc1c(C)c(Cl)c2c(c1O)[C@@H]1[C@@H]3Cc4c(OC(C)=O)c(C)c5c(c4[C@H](CN4C(=O)c6ccccc6C4=O)N3[C@@H](C#N)[C@H](C2)N1C)OCO5 | 0.24 (≈ 0.35 nM) | 0.7 (≈ 1.02 nM) | 1.9 (≈ 2.77 nM) | 0.73 (≈ 1.07 nM) |  |  |  |  |  |
| COc1c(C)cc2c(c1O)[C@@H]1[C@@H]3Cc4c(OC(C)=O)c(C)c5c(c4[C@H](CN4Cc6ccccc6C4=O)N3[C@@H](C#N)[C@H](C2)N1C)OCO5 [Compound 27] |  |  |  |  | 0.71 (≈ 1.12 nM) | 2.2 (≈ 3.46 nM) | 7.2 (≈ 11.3 nM) | 1.7 (≈ 2.67 nM) |  |
| COc1c(C)cc2c(c1O)[C@@H]1[C@@H]3Cc4c(OS(C)(=O)=O)c(C)c5c(c4[C@H](CN4C(=O)c6ccccc6C4=O)N3[C@@H](C#N)[C@H](C2)N1C)OCO5 [Compound 44] |  |  |  |  |  |  |  |  | IC50 ([1]; A-375, read-out: IC50 A375): 0.2 ng/mL (≈ 0.291 nM); IC50 ([2]; HCT-116, read-out: IC50 HCT 116): 0.4 ng/mL (≈ 0.582 nM); IC50 ([3]; A549, read-out: IC50 A-549): 1.2 ng/mL (≈ 1.75 nM); IC50 ([4]; read-out: IC50 PC-3): 0.59 ng/mL (≈ 0.859 nM) |
| C=CCOc1c(C)c2c(c3c1C[C@H]1[C@H]4c5c(cc(C)c(OC)c5O)C[C@@H]([C@H](C#N)N1[C@H]3CN1C(=O)c3ccccc3C1=O)N4C)OCO2 [Compound 45] |  |  |  |  |  |  |  |  | IC50 [1, 15]: 0.98 ng/mL (≈ 1.51 nM); IC50 [2, 13]: 2.1 ng/mL (≈ 3.24 nM); IC50 [3, 14]: 5.2 ng/mL (≈ 8.02 nM); IC50 [4, 16]: 3.1 ng/mL (≈ 4.78 nM) |
| COc1c(C)cc2c(c1O)[C@@H]1[C@@H]3Cc4c(OC(C)=O)c(C)c5c(c4[C@H](CNC(=O)Cc4ccc(O)cc4)N3[C@@H](C#N)[C@H](C2)N1C)OCO5 [Compound 56] |  |  |  |  | 6.5 (≈ 9.93 nM) | 20 (≈ 30.5 nM) | > 100 | 24 (≈ 36.7 nM) |  |
| COc1c(C)cc2c(c1O)[C@@H]1[C@@H]3Cc4c(OC(C)=O)c(C)c5c(c4[C@H](CNC(=O)c4ccccc4)N3[C@@H](C#N)[C@H](C2)N1C)OCO5 [Compound 63] |  |  |  |  |  |  |  |  | IC50 ([1]; A-375, read-out: IC50 Melanoma): 0.22 ng/mL (≈ 0.352 nM); IC50 ([2]; HCT-116, read-out: IC50 Colon): 0.37 ng/mL (≈ 0.592 nM); IC50 ([3]; A549, read-out: IC50 Lung): 2 ng/mL (≈ 3.2 nM); IC50 ([4]; read-out: IC50 Prostate): 0.4 ng/mL (≈ 0.64 nM) |
| COC1=C(C)C(=O)C2=C(C1=O)[C@@H]1[C@@H]3Cc4c(OC(C)=O)c(C)c5c(c4[C@H](CN4C(=O)c6ccccc6C4=O)N3[C@@H](C#N)[C@H](C2)N1C)OCO5 | 0.3 (≈ 0.451 nM) | 0.53 (≈ 0.797 nM) | 1.1 (≈ 1.65 nM) | 0.45 (≈ 0.677 nM) |  |  |  |  |  |
| COC1=C(C)C(=O)C2=C(C1=O)[C@H](CN1C(=O)c3ccccc3C1=O)N1[C@@H](C#N)[C@@H]3Cc4cc(C)c(OC)c(O)c4[C@H]([C@@H]1C2)N3C | 9 (≈ 14.8 nM) | 24 (≈ 39.4 nM) | > 100 | 22 (≈ 36.1 nM) |  |  |  |  |  |
| COc1c(C)cc2c(c1O)[C@H]1N[C@@H](C2)[C@H](C#N)N2[C@@H](CN3C(=O)c4ccccc4C3=O)c3c(c(OC(C)=O)c(C)c4c3OCO4)C[C@@H]12 | 1.9 (≈ 2.98 nM) | 3.5 (≈ 5.5 nM) | 21 (≈ 33 nM) | 3.3 (≈ 5.18 nM) |  |  |  |  |  |
